Key:
Assay in all cases: Inhibition Assay
Settings in all cases: 37 °C
[1] = target: 72 kDa type IV collagenase (Homo sapiens, UniProt P08253)
Excerpt: (§1) Inhibition of IC50 using matrix metalloproteinase.

[2] = target: T1, Matrix metalloproteinase-14 [1-20,P8S] (Homo sapiens, UniProt P50281, P8S)
T1 construct: 1-20
Excerpt: as §1

[3] = target: T2, Matrix metalloproteinase-25 (Homo sapiens, UniProt Q9NPA2)
T2 sequence (Q9NPA2 whole entry): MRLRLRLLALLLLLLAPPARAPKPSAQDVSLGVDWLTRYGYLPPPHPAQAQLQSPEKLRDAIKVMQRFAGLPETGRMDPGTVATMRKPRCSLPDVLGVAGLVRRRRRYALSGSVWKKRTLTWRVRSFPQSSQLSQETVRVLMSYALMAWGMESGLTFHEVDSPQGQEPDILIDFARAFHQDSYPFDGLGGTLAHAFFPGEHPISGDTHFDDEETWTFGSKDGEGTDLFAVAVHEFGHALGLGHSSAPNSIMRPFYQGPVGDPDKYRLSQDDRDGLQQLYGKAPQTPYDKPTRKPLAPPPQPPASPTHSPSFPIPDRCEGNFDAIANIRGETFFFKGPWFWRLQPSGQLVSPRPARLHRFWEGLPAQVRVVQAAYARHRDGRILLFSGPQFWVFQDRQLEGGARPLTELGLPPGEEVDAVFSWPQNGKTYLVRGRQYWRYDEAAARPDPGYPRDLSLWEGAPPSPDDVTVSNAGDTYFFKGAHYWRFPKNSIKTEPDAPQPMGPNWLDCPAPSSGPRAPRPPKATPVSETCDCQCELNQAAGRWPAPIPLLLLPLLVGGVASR
Excerpt: as §1

[4] = target: Matrix metalloproteinase-9 (Homo sapiens, UniProt P14780)
Excerpt: as §1

Chain of 72 kDa type IV collagenase (P08253 whole entry): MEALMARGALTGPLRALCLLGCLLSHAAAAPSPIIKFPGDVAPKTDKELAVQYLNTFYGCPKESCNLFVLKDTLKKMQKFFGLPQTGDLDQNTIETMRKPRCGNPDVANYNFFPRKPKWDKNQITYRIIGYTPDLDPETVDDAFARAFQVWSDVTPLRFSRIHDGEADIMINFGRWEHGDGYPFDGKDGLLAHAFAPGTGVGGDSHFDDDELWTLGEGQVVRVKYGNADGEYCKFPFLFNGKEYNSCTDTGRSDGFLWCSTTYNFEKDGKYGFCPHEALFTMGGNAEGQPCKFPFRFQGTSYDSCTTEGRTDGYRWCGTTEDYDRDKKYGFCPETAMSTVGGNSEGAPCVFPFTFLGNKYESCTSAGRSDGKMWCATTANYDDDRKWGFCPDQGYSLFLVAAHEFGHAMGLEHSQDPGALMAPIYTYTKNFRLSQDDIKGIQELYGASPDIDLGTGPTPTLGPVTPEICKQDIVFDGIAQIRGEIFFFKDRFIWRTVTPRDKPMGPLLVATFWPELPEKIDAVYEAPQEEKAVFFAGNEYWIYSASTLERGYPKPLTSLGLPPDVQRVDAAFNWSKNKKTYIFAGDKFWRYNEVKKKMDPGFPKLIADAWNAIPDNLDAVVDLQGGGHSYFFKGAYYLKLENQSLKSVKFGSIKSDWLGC
Chain of Matrix metalloproteinase-9 (P14780 whole entry): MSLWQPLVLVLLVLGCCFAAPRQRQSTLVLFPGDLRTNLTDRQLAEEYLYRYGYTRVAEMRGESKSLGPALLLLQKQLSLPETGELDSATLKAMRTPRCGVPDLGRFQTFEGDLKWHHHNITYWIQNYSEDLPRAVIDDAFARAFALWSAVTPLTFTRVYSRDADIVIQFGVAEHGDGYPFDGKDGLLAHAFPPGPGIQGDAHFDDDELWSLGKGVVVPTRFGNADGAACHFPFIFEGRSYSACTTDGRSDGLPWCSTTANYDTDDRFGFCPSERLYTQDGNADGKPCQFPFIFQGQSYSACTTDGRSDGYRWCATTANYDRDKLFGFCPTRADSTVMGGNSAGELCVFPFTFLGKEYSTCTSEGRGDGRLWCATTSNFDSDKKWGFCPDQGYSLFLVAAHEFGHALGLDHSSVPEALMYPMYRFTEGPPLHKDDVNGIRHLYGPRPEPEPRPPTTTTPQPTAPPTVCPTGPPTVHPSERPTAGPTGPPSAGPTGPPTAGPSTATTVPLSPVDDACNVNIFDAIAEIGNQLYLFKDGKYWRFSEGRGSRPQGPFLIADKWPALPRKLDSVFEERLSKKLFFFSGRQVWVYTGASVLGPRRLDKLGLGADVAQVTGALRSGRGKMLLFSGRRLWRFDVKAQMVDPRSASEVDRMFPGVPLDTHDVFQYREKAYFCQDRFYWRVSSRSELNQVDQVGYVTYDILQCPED

Row | IC50 [1] | IC50 [2] | IC50 [3] | IC50 [4] | SMILES
1 | > 100 µM | > 100 µM | 2.5 µM | > 100 µM | CCOc1ccc(-c2ccccc2C(=O)NO)cc1 [BI-102C8]
2 | 1.9 µM | 10.9 µM | 0.9 µM | > 50 µM | O=C(CCS(=O)(=O)c1ccccc1)NO [BI-92G11]

Source: BindingDB's records for doi:10.1074/jbc.M110.107094 (Sanford-Burnham Medical Research Institute, 2010)
